Among the data in patent US12624018B1, “Inhibitors of RIPK2 and medical uses thereof” (Odyssey Therapeutics, Inc., priority 2022, dated 2026) are IC50 values, retold here.

One experiment has as its target T1, RIPK2 enzyme (Homo sapiens, UniProt O43353).
T1 construct: purchased Carna 09-128
The experiment in a line: RIPK2 inhibition (ADP-Glo Kinase Assay). The format is biochemical. The settings on record: RIPK2 5 nM, ATP 150 μM, MBP substrate, read-out: RIPK2 IC50. The gist of the method: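 Human RIPK2 (5 nM) preincubated with compound 30 min at room temperature in 50 mM HEPES pH 7.5, 10 mM MgCl2, 2 mM DTT, 1 mM EGTA, 0.01% Brij-35, 0.05% BSA; native swine MBP as substrate. ADP formed quantified by ADP-Glo luminescence; percent inhibition relative to DMSO and no-enzyme controls.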
For orientation: ADP-Glo first removes unused ATP, then detects ADP through luciferase.

Experiment [1] relates to TNF-alpha secretion in human whole blood. The experiment in a line: Inhibition of TNF-alpha secretion in human whole blood (IFN-gamma primed, L18-MDP stimulated). In kind it is cell-based. The settings on record: Homo sapiens, 16 h, L18-MDP 100 ng/mL, read-out: Human Whole Blood TNFα IC50.
Experiment [2] deals with T2, RIPK2 and XIAP protein-protein interaction (Homo sapiens, UniProt O43353).
T2 construct: the N-terminus of full-length RIPK2 was appended with the HaloTag fusion protein; expressed in transfected cells; host or cells: HEK293T
Description: Inhibition of the interaction of RIPK2 with XIAP (NanoBRET in HEK293T cells). Particulars: RIPK2 HaloTag / XIAP NanoLuc, read-out: NanoBRET Scaffolding IC50. The format is cell-based. In outline:
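HEK293T cells transiently co-transfected with HaloTag-RIPK2 (N-terminal) and XIAP-NanoLuc (C-terminal) full-length fusions, grown 24 h at 37° C. in Opti-MEM with 4% FBS. Compounds tested as 10-point 3-fold dilutions; NanoBRET ratio taken as 618 nm acceptor over 460 nm donor emission.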

Structures are written as SMILES. A value given as a limit tells only on which side of the number the result lay.

T1 sequence (O43353 1-299 limits assumed): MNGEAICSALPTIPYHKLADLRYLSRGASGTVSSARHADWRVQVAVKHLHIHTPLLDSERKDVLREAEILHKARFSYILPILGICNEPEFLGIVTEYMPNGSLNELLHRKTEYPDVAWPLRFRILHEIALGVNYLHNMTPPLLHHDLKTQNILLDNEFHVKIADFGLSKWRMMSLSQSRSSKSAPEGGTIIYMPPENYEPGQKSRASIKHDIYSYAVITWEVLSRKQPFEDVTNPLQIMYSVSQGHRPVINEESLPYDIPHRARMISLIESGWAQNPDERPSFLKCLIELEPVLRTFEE
T2 sequence (O43353 whole entry, the tested form may be a part): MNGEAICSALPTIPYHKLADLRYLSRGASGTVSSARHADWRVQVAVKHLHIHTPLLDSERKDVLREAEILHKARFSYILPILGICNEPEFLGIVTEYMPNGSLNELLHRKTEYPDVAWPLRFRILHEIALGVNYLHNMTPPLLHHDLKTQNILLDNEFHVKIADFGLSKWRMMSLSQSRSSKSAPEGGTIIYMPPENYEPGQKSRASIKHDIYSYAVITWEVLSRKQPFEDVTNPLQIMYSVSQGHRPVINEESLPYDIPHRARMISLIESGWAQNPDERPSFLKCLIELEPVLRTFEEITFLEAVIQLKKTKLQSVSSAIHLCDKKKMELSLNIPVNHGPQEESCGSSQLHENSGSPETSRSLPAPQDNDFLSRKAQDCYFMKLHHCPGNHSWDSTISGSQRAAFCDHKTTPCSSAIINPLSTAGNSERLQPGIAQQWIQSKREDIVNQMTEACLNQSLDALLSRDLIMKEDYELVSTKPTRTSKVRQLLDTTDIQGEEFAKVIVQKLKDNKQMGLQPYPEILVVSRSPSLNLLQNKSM

On to `CC(C)(C)n1cc(NC(=O)Cc2ccc(Oc3ccnc4ccc(S(C)(=O)=O)cc34)cc2F)cn1` [Compound 38, N-(1-(tert-butyl)-1H-pyrazol-4-yl)-2-(2-fluoro-4-((6-(methylsulfonyl)quinolin-4-yl)oxy)phenyl)acetamide], for which the IC50 was less than 2.5 nM at RIPK2 enzyme, 5 nM in experiment [1] and 54 nM in experiment [2].

With `Cc1cc(CC(=O)Nc2cnn(C(C)(C)C)c2)ccc1Oc1ccnc2ccc(OC3CCNCC3)cc12` [Compound 83, N-(1-(tert-butyl)-1H-pyrazol-4-yl)-2-(3-methyl-4-((6-(piperidin-4-yloxy)quinolin-4-yl)oxy)phenyl) acetamide], the IC50 at RIPK2 enzyme was less than 2.5 nM; in experiment [1] it was 3 nM; in experiment [2], 29 nM.

`Cc1cc(CC(=O)Nc2cnn(C(C)(C)C)c2)ccc1Oc1ccnc2ccc(S(C)(=O)=O)cc12` [Compound 86, N-(1-(tert-butyl)-1H-pyrazol-4-yl)-2-(3-methyl-4-((6-(methylsulfonyl)quinolin-4-yl)oxy)phenyl)acetamide]: the IC50 was less than 2.5 nM on RIPK2 enzyme, 9 nM in experiment [1] and 12 nM in experiment [2].

With `Cc1c(Oc2ccnc3ccc(S(C)(=O)=O)cc23)ccc(CC(=O)Nc2cnn(C(C)(C)C)c2)c1F` [Compound 91, N-(1-(tert-butyl)-1H-pyrazol-4-yl)-2-(2-fluoro-3-methyl-4-((6-(methylsulfonyl)quinolin-4-yl)oxy)phenyl)acetamide], the values for the IC50 (at RIPK2 enzyme; in experiment [1]; in experiment [2]) were less than 2.5 nM, 6 nM and 12 nM, respectively.

Regarding `CCS(=O)(=O)c1ccc2nccc(Oc3ccc(CC(=O)Nc4cnn(C(C)(C)C)c4)cc3C)c2c1` [Compound 99, N-(1-(tert-butyl)-1H-pyrazol-4-yl)-2-(4-((6-(ethylsulfonyl)quinolin-4-yl)oxy)-3-methylphenyl)acetamide], the results for the IC50 (at RIPK2 enzyme; in experiment [1]; in experiment [2]) were less than 2.5 nM, 8 nM and 15 nM, respectively.

`Cc1cc(CC(=O)Nc2cnn(C(C)(C)C)c2)c(F)cc1Oc1ccnc2ccc(S(C)(=O)=O)cc12` [Compound 113, N-(1-(tert-butyl)-1H-pyrazol-4-yl)-2-(2-fluoro-5-methyl-4-((6-(methylsulfonyl)quinolin-4-yl)oxy)phenyl)acetamide]: the results for the IC50 (on RIPK2 enzyme; in experiment [1]; in experiment [2]) were less than 2.5 nM, 14 nM and 33 nM, respectively.

Consider `Cc1cc(CC(=O)Nc2cnn(C(C)(C)C)c2)c(F)cc1Oc1ccnc2ccc(C(N)=O)cc12` [Compound 359, 4-(4-(2-((1-(tert-butyl)-1H-pyrazol-4-yl)amino)-2-oxoethyl)-5-fluoro-2-methyl-phenoxy) quinoline-6-carboxamide], for which the IC50 on RIPK2 enzyme is less than 2.5 nM; in experiment [1], 4 nM; in experiment [2], 14 nM.

For `CNC(=O)c1ccc2nccc(Oc3cc(F)c(CC(=O)Nc4cnn(C(C)(C)C)c4)cc3C)c2c1` [Compound 360, 4-(4-(2-((1-(tert-butyl)-1H-pyrazol-4-yl)amino)-2-oxoethyl)-5-fluoro-2-methylphenoxy)-N-methylquinoline-6-carboxamide], the IC50 was less than 2.5 nM at RIPK2 enzyme, 7 nM in experiment [1] and 8 nM in experiment [2].

With `Cc1cc(CC(=O)Nc2cnn(C(C)(C)C)c2)cc(C)c1Oc1ccnc2cc(F)c(C(N)=O)cc12` [Compound 581, 4-(4-(2-((1-(tert-butyl)-1H-pyrazol-4-yl)amino)-2-oxoethyl)-2,6-dimethylphenoxy)-7-fluoroquinoline-6-carboxamide], the IC50 at RIPK2 enzyme was less than 2.5 nM; in experiment [2], 61.4 nM.
